Target: T1, mouse GnRH receptor (Mus musculus, UniProt Q01776)
T1 construct: expressed in transfected cells; host or cells: 293 cells
T1 sequence (Q01776 1-327): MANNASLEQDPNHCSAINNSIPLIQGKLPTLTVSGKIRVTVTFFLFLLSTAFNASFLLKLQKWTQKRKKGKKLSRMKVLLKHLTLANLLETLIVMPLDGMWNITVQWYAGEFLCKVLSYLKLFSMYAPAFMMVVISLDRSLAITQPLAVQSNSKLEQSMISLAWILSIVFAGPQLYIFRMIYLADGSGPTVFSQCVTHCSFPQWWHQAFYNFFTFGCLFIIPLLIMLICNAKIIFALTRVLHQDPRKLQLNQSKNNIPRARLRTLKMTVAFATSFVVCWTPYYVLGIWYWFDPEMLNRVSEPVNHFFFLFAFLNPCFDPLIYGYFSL
Experiment: Radioligand binding, 125I-GnRH-A, 293 cells expressing mouse GnRH receptors
Settings: 10 uM; read-out: % Inhib. @ 10 uM mGnRH
Summary of the method: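 Bound label captured on 0.1% polyethyleneimine-treated GF/C filters, washed three times with PBS, counted. IC50 derived; identical set-up for every species.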

Row | SMILES | inhibition at 10 µM [%]
1 | Cc1cc2c(cc1Cc1ccc(C(=O)NC3CCN(Cc4ccccc4)C3)o1)C(C)(C)CCC2(C)C (centres unmarked) [drawing 1243] | 101
2 | Cc1cc2c(cc1Cc1ccc(C(=O)N3CCN(CCOCCO)CC3)o1)C(C)(C)CCC2(C)C [drawing 1252] | 63
3 | Cc1cc2c(cc1Cc1ccc(C(=O)N(CCCN(C)C)CCCN(C)C)o1)C(C)(C)CCC2(C)C [drawing 1254] | 71
4 | Cc1cc2c(cc1Cc1ccc(C(=O)N(CCN(C)C)Cc3ccccc3)o1)C(C)(C)CCC2(C)C [drawing 1255] | 104
5 | CCCNC(=O)c1ccc(Cc2cc3c(cc2C)C(C)(C)CCC3(C)C)o1 [drawing 1274] | 93
6 | CCCCN(C(=O)c1ccc(Cc2cc3c(cc2C)C(C)(C)CCC3(C)C)o1)C(C)c1ccccc1 (centres unmarked) [drawing 1275] | 65
7 | Cc1cc2c(cc1Cc1ccc(C(=O)N(Cc3cccnc3)Cc3cccn3C)o1)C(C)(C)CCC2(C)C [drawing 1285] | 100
8 | Cc1cc2c(cc1Cc1ccc(C(=O)N(Cc3cccnc3)Cc3ccccc3F)o1)C(C)(C)CCC2(C)C [drawing 1287] | 95
9 | CCOC(CN(CCc1ccccc1)C(=O)c1ccc(Cc2cc3c(cc2C)C(C)(C)CCC3(C)C)o1)OCC [drawing 1296] | 66
10 | CCCN(CCc1ccccn1)C(=O)c1ccc(Cc2cc3c(cc2C)C(C)(C)CCC3(C)C)o1 [drawing 1297] | 100
11 | COC(=O)C1CCCN1C(=O)c1ccc(Cc2cc3c(cc2C)C(C)(C)CCC3(C)C)o1 (centres unmarked) [drawing 1298] | 97

Other lines, results leading:

Row | inhibition at 10 µM [%] | SMILES
12 | 82 | Cc1cc2c(cc1Cc1ccc(C(=O)NC(C)CO)o1)C(C)(C)CCC2(C)C (centres unmarked) [drawing 1241]
13 | 103 | CCCCN(CCCC)CCCNC(=O)c1ccc(Cc2cc3c(cc2C)C(C)(C)CCC3(C)C)o1 [drawing 1242]
14 | 100 | CCN(CC)CCCNC(=O)c1ccc(Cc2cc3c(cc2C)C(C)(C)CCC3(C)C)o1 [drawing 1244]
15 | 80 | Cc1cc2c(cc1Cc1ccc(C(=O)N3CCC(n4c(=O)[nH]c5ccccc54)CC3)o1)C(C)(C)CCC2(C)C [drawing 1246]
16 | 46 | COc1cc2c(cc1OC)CN(C(=O)c1ccc(Cc3cc4c(cc3C)C(C)(C)CCC4(C)C)o1)CC2 [drawing 1253]
17 | 89 | Cc1cc2c(cc1Cc1ccc(C(=O)N3CCN(C(=O)c4ccco4)CC3)o1)C(C)(C)CCC2(C)C [drawing 1264]
18 | 102 | Cc1cc2c(cc1Cc1ccc(C(=O)N3CCN(C4CCCCC4)CC3)o1)C(C)(C)CCC2(C)C [drawing 1265]
19 | 101 | COCCCNC(=O)c1ccc(Cc2cc3c(cc2C)C(C)(C)CCC3(C)C)o1 [drawing 1268]
20 | 26 | Cc1cc2c(cc1Cc1ccc(C(=O)NCC(F)(F)F)o1)C(C)(C)CCC2(C)C [drawing 1271]
21 | 73 | Cc1ccc(N2CCN(C(=O)c3ccc(Cc4cc5c(cc4C)C(C)(C)CCC5(C)C)o3)CC2C)cc1 (centres unmarked) [drawing 1276]
22 | 72 | Cc1cc2c(cc1Cc1ccc(C(=O)NCC3CCCCC3)o1)C(C)(C)CCC2(C)C [drawing 1302]
23 | 75 | COc1cccc(CN(Cc2cccc(Oc3cccc(C(F)(F)F)c3)c2)C(=O)c2ccc(Cc3cc4c(cc3C)C(C)(C)CCC4(C)C)o2)c1OC [drawing 1307]

Same assay, conditions: 1 h, substrate remaining; 10 uM compound; closer to zero = closer to 100% inhibition; read-out: S%R 10 uM mGnRHR

Row | SMILES | remaining activity at 10 µM [%]
24 | CC[C@H](C)C(CO)NC(=O)c1ccc(Cc2cc3c(cc2C)C(C)(C)CCC3(C)C)o1 (some centres unmarked) [Compound 683] | 23
25 | Cc1cc2c(cc1Cc1ccc(C(=O)NC(C)CO)o1)C(C)(C)CCC2(C)C (centres unmarked) [Compound 685] | 19
26 | Cc1cc2c(cc1Cc1ccc(C(=O)N3CCN(CCOCCO)CC3)o1)C(C)(C)CCC2(C)C [Compound 686] | 37
27 | CCCNC(=O)c1ccc(Cc2cc3c(cc2C)C(C)(C)CCC3(C)C)o1 [Compound 687] | 7
28 | Cc1cc2c(cc1Cc1ccc(C(=O)N(Cc3cccnc3)Cc3cccn3C)o1)C(C)(C)CCC2(C)C [Compound 688] | 0
29 | CCCCN(CCCC)CCCNC(=O)c1ccc(Cc2cc3c(cc2C)C(C)(C)CCC3(C)C)o1 [Compound 692] | -2
30 | COc1cc2c(cc1OC)CN(C(=O)c1ccc(Cc3cc4c(cc3C)C(C)(C)CCC4(C)C)o1)CC2 [Compound 693] | 55
31 | Cc1cc2c(cc1Cc1ccc(C(=O)N(Cc3ccccc3)Cc3ccc(Cl)c(Cl)c3)o1)C(C)(C)CCC2(C)C [Compound 696] | 21
32 | CCCN(CCc1ccccn1)C(=O)c1ccc(Cc2cc3c(cc2C)C(C)(C)CCC3(C)C)o1 [Compound 697] | 1
33 | Cc1cc2c(cc1Cc1ccc(C(=O)N3CCC(CNC(=O)C(F)(F)F)CC3)o1)C(C)(C)CCC2(C)C [Compound 698] | 59
34 | Cc1ccc(N2CCN(C(=O)c3ccc(Cc4cc5c(cc4C)C(C)(C)CCC5(C)C)o3)CC2C)cc1 (centres unmarked) [Compound 702] | 28
35 | Cc1cc2c(cc1Cc1ccc(C(=O)N(Cc3cccnc3)Cc3ccccc3F)o1)C(C)(C)CCC2(C)C [Compound 703] | 5
36 | COC(=O)C1CCCN1C(=O)c1ccc(Cc2cc3c(cc2C)C(C)(C)CCC3(C)C)o1 (centres unmarked) [Compound 704] | 4
37 | Cc1cc2c(cc1Cc1ccc(C(=O)N(CCC#N)Cc3ccco3)o1)C(C)(C)CCC2(C)C [Compound 705] | 23
38 | CCN(CC)CCCNC(=O)c1ccc(Cc2cc3c(cc2C)C(C)(C)CCC3(C)C)o1 [Compound 707] | 0

Continued, values first:

Row | remaining activity at 10 µM [%] | SMILES
39 | 59 | Cc1cc2c(cc1Cc1ccc(C(=O)NCc3cccc(NC(=O)NC(Cc4ccccc4)c4ccccc4)c3)o1)C(C)(C)CCC2(C)C (centres unmarked) [Compound 682]
40 | 2 | CCOC(=O)CCNC(=O)c1ccc(Cc2cc3c(cc2C)C(C)(C)CCC3(C)C)o1 [Compound 684]
41 | 34 | CCOC(CN(CCc1ccccc1)C(=O)c1ccc(Cc2cc3c(cc2C)C(C)(C)CCC3(C)C)o1)OCC [Compound 689]
42 | 25 | COc1cccc(CN(Cc2cccc(Oc3cccc(C(F)(F)F)c3)c2)C(=O)c2ccc(Cc3cc4c(cc3C)C(C)(C)CCC4(C)C)o2)c1OC [Compound 690]
43 | 7 | Cc1cc2c(cc1Cc1ccc(C(=O)N(Cc3cccnc3)CC3CC=CCC3)o1)C(C)(C)CCC2(C)C (centres unmarked) [Compound 691]
44 | 11 | Cc1cc2c(cc1Cc1ccc(C(=O)N3CCN(C(=O)c4ccco4)CC3)o1)C(C)(C)CCC2(C)C [Compound 694]
45 | 35 | CCCCN(C(=O)c1ccc(Cc2cc3c(cc2C)C(C)(C)CCC3(C)C)o1)C(C)c1ccccc1 (centres unmarked) [Compound 695]
46 | -1 | Cc1cc2c(cc1Cc1ccc(C(=O)NC3CCN(Cc4ccccc4)C3)o1)C(C)(C)CCC2(C)C (centres unmarked) [Compound 699]
47 | 30 | Cc1cc2c(cc1Cc1ccc(C(=O)N(CCCN(C)C)CCCN(C)C)o1)C(C)(C)CCC2(C)C [Compound 700]
48 | -1 | Cc1cc2c(cc1Cc1ccc(C(=O)N3CCN(C4CCCCC4)CC3)o1)C(C)(C)CCC2(C)C [Compound 701]
49 | 3 | Cc1cc2c(cc1Cc1ccc(C(=O)NC(CO)CC(C)C)o1)C(C)(C)CCC2(C)C (centres unmarked) [Compound 706]
50 | -4 | Cc1cc2c(cc1Cc1ccc(C(=O)N(CCN(C)C)Cc3ccccc3)o1)C(C)(C)CCC2(C)C [Compound 708]
